Where two headings read alike, the source gives them in different places.
Columns and labels:
HIV-1Ada-M = assay: ELISA of HIV-1Ada-M p24 antigen expression in PBMC; assay type: cell-based; details: for therapeutic index TI: HIV-1Ada-M p24, PBMC, TI=IC50/EC50
Source text: (4) Quantitative Enzyme Linked Immunoadsorbent method (EIISA) detecting inhibiting effects of compounds to virus HIV-1Ada-Mp24 expression: (see JIANG, Haiou; WANG, Xu; L I, Rurun; CHEN, Dagang; B I, Kunlong, Experimental Research on Recipe Sanhuangsan Capsule Resisting AIDS Virus in Vitro, [J], Shandong Journal of Traditional Chinese medicine, 2005.8 (1):21-26).
Multi-heads sample injector is used to conduct triple dilution to the sample on the 96-hole culture plate. There are 6 dilutions, in which each dilution has 3 duplicate holes, and each hole is 100 ul. […] On the 96-hole flat culture plate, each hole is added with 25 ul virus stock solution containing 1000˜5000 pg/well P24 antigen, which is sufficiently blended. 75 ul mononuclear cell PBMC suspension liquid is added (3×10^5 cell numbers/hole). Upon placing in incubator of 37° C., 5% CO2 to the third day, 100 ul of culture medium is added to each hole. On the 7th day, cell culture supernatant is collected for p24 antigen test. According to p24 kit description, ELISA method is used to measure the virus HIV-1 p24 antigen concentration of each sample cell culture hole supernatant. The following formula is used to calculate the inhibition ratio of sample to virus.
Inhibition ratio of sample to virus p24 antigen (%)=(1−experimental hole OD value/cell+virus control hole OD value)×100%. Reed and Mueneh method is used to calculate EC50 of the test sample, and to further calculate the therapeutic index (TI) (TI=IC50/EC50). […] The positive control SCH-C, 23-hydroxyl-betulinic acid, compounds zhangnan-5, zhangnan-7 and zhangnan-8 all reach an inhibition ratio above 50% within the tested range. The positive control SCH-C inhibits HIV-1Ada-M p24 antigen expression. […] In addition, the inhibition effect to HIV-1Ada-M has significant dose-effect relationship with its concentration.

HIV-1IIIB = assay: Inhibition of HIV-1IIIB induced syncytium formation in C8166 cells; assay type: cell-based; details: for therapeutic index TI: HIV-1IIIB syncytium, C8166, TI=IC50/EC50; for EC50: HIV-1IIIB, C8166 cells, third day after infection
Source text: (3) The inhibition effects of compounds zhangnan-5, zhangnan-7 and zhangnan-8 to virus HIV-1IIIB inducing C8166 cell to form syncytium: (see JIANG, Haiou; WANG, Xu; L I, Rurun; CHEN, Dagang; B I, Kunlong, Experimental Research on Recipe Sanhuangsan Capsule for Resisting AIDS virus in Vitro, [J]. Shandong Journal of Traditional Chinese medicine, 2005.8 (1):21-26).
The test sample is double diluted with culture medium on the 96-hole flat culture plate. There are 8 dilutions in total. Each hole 100 ul has 2 duplicate holes. In addition, there are positive control group, cell control group and virus control group. 80 ul C8166 cell of 4×10^5/ml is added into each hole, and then 20 ul virus HIV-1IIIB supernatant is added into each hole. The final volume of each hole is 200 ul. The sample is placed in incubator of 370C, 5% CO2 for cultivation. […] Under the inverted microscope, the number of syncytium formed by virus HIV-1IIIB inducing C8166 cell is counted. […] The following formula is used to calculate the inhibition ratio of the sample to syncytium.
Inhibition ratio formed by syncytium (%)=(1−experimental hole syncytium number/control hole syncytium number)×100%

[1] = test system: C8166 (human T cell line); assay: Toxicity to C8166 cells (MTT, day 7); assay type: cell-based; details: C8166, day 7, MTT
Experimental: (§1) (2) Toxicity of compounds zhangnan-5, zhangnan-7 and zhangnan-8 to C8166 and PBMC cells:
(§2) C8166 (human T cell line) and PBM (using lymphocyte isolation liquid to separate from normal human peripheral blood, and adhered mononuclear cell separated from PBMC) cells in exponential phase are taken. The cells are resuspended after centrifugal (1000 r•min-1, 10 min), and the concentrations are adjusted to 4×10^5/ml and 2×10^6/ml. The test samples are double diluted on the 96-hole cell culture plate. In total 6 gradients are set, each having 3 duplicate holes. In addition, positive control group and cell control group are set. Upon adding cell suspended liquid, the test samples are placed in incubator of 370C and 5% CO2 for incubation. On the seventh (7th) day, MTT method is used to determine toxicity of the samples to cells.
(§3) Inhibition ratio of cell growth (%)=(1−experimental hole OD value/control hole (OD value)×100%

normal person PBMC = assay: Toxicity to PBMC cells (MTT, day 7); assay type: cell-based, human; details: day 7, MTT
Experimental: as §1, §2, §3

[2] = when even reaching 500 mg/kg; cited from earlier work

| EC50 (HIV-1IIIB) [µM] | Compound | therapeutic index TI (HIV-1Ada-M) | therapeutic index TI (HIV-1IIIB) | further results |
| --- | --- | --- | --- | --- |
|  | CCO/N=C(\c1ccc(Br)cc1)C1CCN(C2(C)CCN(C(=O)c3c(C)cc[n+]([O-])c3C)CC2)CC1 [SCH-C, reference compound] | 2583 |  |  |
| 1.39 | Cc1cn([C@H]2C[C@H](N=[N+]=[N-])[C@@H](CO)O2)c(=O)[nH]c1=O [AZT, reference compound] |  | 2473 | IC50 ([1]; positive control, read-out: toxicity to 50% of C8166 cells): 3440 µM |
| 1.2 ± 0.23 | C=C(C)[C@@H]1CC[C@]2(C(=O)O)CC[C@]3(C)[C@H](CC[C@@H]4[C@@]5(C)CC[C@H](O)[C@@](C)(CO)[C@@H]5CC[C@]43C)[C@@H]12 [23-hydroxyl-betulinic acid, reference compound] | 7.8 | 13 | IC50 (normal person PBMC): 14.9 ± 3.46 µM; EC50 (HIV-1Ada-M; HIV-1Ada-M, PBMC, 7th day, ELISA, read-out: EC50, inhibition of p24 antigen expression): 1.9 ± 0.39 µM; IC50 ([1]; read-out: IC50 (50% inhibition concentration) to C8166 cell): 15.1 ± 3.57 µM |
|  | C=C(C)[C@@H]1CC[C@]2(C(=O)O)CC[C@]3(C)[C@H](CC[C@@H]4[C@@]5(C)CC[C@H](O)C(C)(C)[C@@H]5CC[C@]43C)[C@@H]12 [Betulinic acid, 3β-hydroxy-1up-20(29)-ene-28-oic acid] |  |  | toxic reaction [2]: no obvious toxic reaction |

Reference: patent publication US20120302530A1, “23-HYDROXY-BETULINIC ACID DERIVATIVES, PREPARATION METHODS AND USES THEREOF” (priority 2009, published 2012)
